The target in the assay is T1, human PAH with the R408W mutation (A375 R408W cells) (Homo sapiens, UniProt P00439, R408W).
T1 construct: expressed in transfected cells
T1 sequence (P00439 1-452 R408W): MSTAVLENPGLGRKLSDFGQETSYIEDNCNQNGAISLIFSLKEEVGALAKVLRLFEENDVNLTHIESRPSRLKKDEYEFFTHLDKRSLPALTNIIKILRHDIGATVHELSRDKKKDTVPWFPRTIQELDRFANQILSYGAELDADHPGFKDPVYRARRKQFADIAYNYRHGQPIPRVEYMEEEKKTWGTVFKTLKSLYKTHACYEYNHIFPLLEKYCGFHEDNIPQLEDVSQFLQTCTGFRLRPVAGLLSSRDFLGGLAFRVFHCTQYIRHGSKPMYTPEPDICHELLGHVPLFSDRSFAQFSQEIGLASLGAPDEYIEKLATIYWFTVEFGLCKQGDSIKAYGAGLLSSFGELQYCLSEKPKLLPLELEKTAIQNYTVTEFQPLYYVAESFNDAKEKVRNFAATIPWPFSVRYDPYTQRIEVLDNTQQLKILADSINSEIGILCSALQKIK
The experiment in a line: Cell Based Phenylalanine Flux Assay. The note with it: 24 hrs with compound, then 20 μM sepiapterin and 800 μM 13C9,15N-Phenylalanine for 4 hours, 13C-Tyrosine by LC-MS, average where tested multiple times. In short, it runs like this: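 AC50 is derived from LC-MS of 13C-tyrosine in the media after a 4 h pulse of 800 μM 13C9,15N-phenylalanine plus 20 μM sepiapterin. The A375 R408W PAH cells had received duplicate 10-point, 2-fold compound dilutions (0.5% DMSO) for 24 h beforehand.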

Where [1] appears, read: A375 cells expressing R408W PAH.

Some results are limits rather than exact numbers.

Experimental findings from patent US20250171437A1 (Agios Pharmaceuticals,Inc., priority 2022, published 2025) are described below.

As to `O=C(c1oc(C2(O)CC2)nc1C(F)F)N1CCc2[nH]cnc2[C@@H]1c1nc2cc(F)ccc2o1` [Example 142, (R)-(4-(difluoromethyl)-2-(1-hydroxycyclopropyl)oxazol-5-yl)(4-(5-fluorobenzo[d]oxazol-2-yl)-6,7-dihydro-1H-imidazo[4,5-c]pyridin-5(4H)-yl)methanone], the AC50 (usually the concentration giving half of the maximal activity seen) (A375 R408W cells) was 1000 to 5000 nM.
As for `O=C(c1ccn[nH]1)N1CCc2[nH]cnc2C1c1nc2cc(F)ccc2o1` (stereo not shown), the AC50 under setting [1] is ≥ 5000 nM.
`Cc1cccc2nc([C@@H]3c4nc[nH]c4CCN3C(=O)c3nc(C(F)(F)F)nn3C)oc12` [Example 685, (S)-(1-methyl-3-(trifluoromethyl)-1H-1,2,4-triazol-5-yl)(4-(7-methylbenzo[d]oxazol-2-yl)-6,7-dihydro-1H-imidazo[4,5-c]pyridin-5(4H)-yl)methanone]: the concentration at half-maximal activity (AC50) (A375 R408W cells) is 500 to 1000 nM.
For the compound `Cc1ccc2oc([C@@H]3c4nc[nH]c4CCN3C(=O)c3ocnc3C(F)F)nc2c1` [Example 137, (S)-(4-(difluoromethyl)oxazol-5-yl)(4-(5-methylbenzo[d]oxazol-2-yl)-6,7-dihydro-1H-imidazo[4,5-c]pyridin-5(4H)-yl)methanone], the AC50 (A375 R408W cells) is ≤ 500 nM.
With `CC(C)(O)c1nc(C(F)F)c(C(=O)N2CCc3[nH]cnc3[C@H]2c2nc3cccc(C(F)(F)F)c3o2)o1` [Example 453, (S)-(4-(difluoromethyl)-2-(2-hydroxypropan-2-yl)oxazol-5-yl)(4-(7-(trifluoromethyl)benzo[d]oxazol-2-yl)-6,7-dihydro-1H-imidazo[4,5-c]pyridin-5(4H)-yl)methanone], under “A375 R408W cells”, the AC50 was ≤ 500 nM.
Regarding `CN(C)CCOc1ccc2c(C(=O)N3CCc4[nH]cnc4C3c3nc4cc(F)ccc4o3)cnn2c1` (stereo not shown), the AC50 under setting [1] lay within 1000 to 5000 nM.
`Cn1ccc(-c2nc(C(F)F)c(C(=O)N3CCc4[nH]cnc4[C@@H]3c3nc4cccc(F)c4o3)o2)n1` [Example 592, (R)-(4-(difluoromethyl)-2-(1-methyl-1H-pyrazol-3-yl)oxazol-5-yl)(4-(7-fluorobenzo[d]oxazol-2-yl)-6,7-dihydro-1H-imidazo[4,5-c]pyridin-5(4H)-yl)methanone]: the AC50 (A375 R408W cells) lay within 500 to 1000 nM.
In the case of `O=C(c1cnco1)N1CCc2[nH]cnc2C1c1nc2c(F)cccc2o1` (stereo not shown), the concentration at half-maximal activity (AC50) under setting [1] is ≥ 5000 nM.
With `O=C(c1cnn2cc(N3CCN(CC(F)(F)F)CC3)ccc12)N1CCc2[nH]cnc2C1c1nc2cc(F)ccc2o1` (stereo not shown), the AC50 under setting [1] is ≥ 5000 nM.
For `Cc1ccc2c(C(=O)N3CCc4[nH]cnc4[C@@H]3c3nc4cccc(F)c4o3)cnn2c1` [Example 324, (R)-(4-(7-fluorobenzo[d]oxazol-2-yl)-6,7-dihydro-1H-imidazo[4,5-c]pyridin-5(4H)-yl)(6-methylpyrazolo[1,5-a]pyridin-3-yl)methanone], the AC50 (A375 R408W cells) was in the range of 1000 to 5000 nM.
With `Cc1ncoc1C(=O)N1CCc2[nH]cnc2[C@H]1c1nc2ccc(F)cc2o1` [Example 597, (S)-(4-(6-fluorobenzo[d]oxazol-2-yl)-6,7-dihydro-1H-imidazo[4,5-c]pyridin-5(4H)-yl)(4-methyloxazol-5-yl)methanone], where the note is “A375 R408W cells”, the half-maximal activity concentration (AC50) was ≤ 500 nM.
On to `Cc1ccc(-c2nnc(C(=O)N3CCc4[nH]cnc4[C@H]3c3nc4cc(F)ccc4o3)o2)nc1` [Example 126, (S)-(4-(5-fluorobenzo[d]oxazol-2-yl)-6,7-dihydro-1H-imidazo[4,5-c]pyridin-5(4H)-yl)(5-(5-methylpyridin-2-yl)-1,3,4-oxadiazol-2-yl)methanone], for which, for the setting “A375 R408W cells”, the AC50 fell in the range of 500 to 1000 nM.
In the case of `O=C(c1cnco1)N1CCc2[nH]cnc2C1c1nc2ccc(F)cc2o1` (stereo not shown), the AC50 under setting [1] was 1000 to 5000 nM.
Still for that read-out and setting: next, `COC(C)(C)c1nc(C)c(C(=O)N2CCc3[nH]cnc3C2c2nc3cc(F)ccc3o2)o1` (stereo not shown): 1000 to 5000 nM.
For `COc1ccc2oc(C3c4nc[nH]c4CCN3C(=O)c3cnc(C(C)(C)O)o3)nc2c1` (stereo not shown), under setting [1], the half-maximal activity concentration (AC50) was ≥ 5000 nM.
As to `O=C(c1nnc(-c2cccnc2)o1)N1CCc2[nH]cnc2[C@H]1c1nc2cc(F)ccc2o1` [Example 399, (S)-(4-(5-fluorobenzo[d]oxazol-2-yl)-6,7-dihydro-1H-imidazo[4,5-c]pyridin-5(4H)-yl)(5-(pyridin-3-yl)-1,3,4-oxadiazol-2-yl)methanone], the AC50 (A375 R408W cells) was 500 to 1000 nM.
